Where “and” joins values, the source holds several entries; their conditions need not be identical. Identical values can stand only once. Ends that are not written are not given here.

A short description of data set [1]: storage stability of peptide-coated microtiter plates. The settings on record: peptide-coated microtiter plates stored for several months. In kind it is physicochemical. As to the method: (§1) Polylysine at a concentration of 1 mg/ml was added to the microtiter plates and allowed to incubate for 30 minutes. The polylysine was then discarded and peptide gpAHTLV-1 was added to the wells in a concentration of 10 to 100 μg/ml for coating. After the peptide incubated in the well for a length of time sufficient to allow the peptide to become bonded to the well, the peptide solution was removed and a solution of glutaraldehyde, which stabilizes the peptide attachment to the wells, was added for 15 minutes. The glutaraldehyde solution was then removed, the wells washed with buffer, and a mixture of glycine and bovine serum albumin (BSA) was added which served to block unbound sites in the wells and minimize spurious reactions during the ELISA test per se. After a final washing step, the plates were ready to use.

The test system of data set [2] is antibodies to HTLV-1. The experiment in a line: ELISA immunologic reactivity of peptides gpAHTLV-1, gpBHTLV-1 and gpCHTLV-1 with human sera (Table 2). In kind it is binding. The settings on record: for Mean O.D.405 of Negative Sera / cut off = Mean O.D.405 of Negative Sera + 6 × S.D.: negative sera of Table 2; for confirmed positive HTLV-1 serum samples reacted with peptide: reactive/tested, 6 HTLV-1 positive sera. On the procedure:
as §1
(§2) A convenient variation of known ELISA methods was used with the microtiter plates prepared as above. Serum samples from individuals which had been diluted 1:50 in PBS (phosphate buffered saline) containing 0.05% polyoxyethylenesorbitan monolaurate (Tween 20) and 1% BSA were added to each well and allowed to incubate for 90 minutes at 37° C. in a humidified atmosphere. The diluted serum samples were then removed from the plates and the wells washed three times with PBS containing 0.05% Tween 20. A conjugated anti-human immunoglobulin (Ig) antibody was then added to the wells and allowed to incubate for 90 minutes. The conjugated antibody was produced in a goat or rabbit and was specific for human IgG, IgM, immunoglobulin light chains, or combinations thereof. Preferably, alkaline-phophatase conjugated anti-human IgG (from Dakopatts) diluted 1:500 for use in PBS containing 0.05% Tween 20 and 1% BSA was used in the ELISA. After the conjugate had incubated a sufficient length of time to react with bound human antibodies, the plates were washed three times as above. In order to detect antibodies to HTLV-1 in the human serum that react with the peptide gpAHTLV-1 used as the antigen, (i.e. positive reactions), a chromogenic substrate, alkaline phosphatase substrate (Sigma Cat. No. 104 tablets) dissolved in a Na carbonate/MgCl2 buffer and adjusted to a concentration of 1 μg/ml which is cleaved by the alkaline phosphatase enzyme attached to the anti-human Ig antibody to yield a colored product, was added. After incubation for approximately 40 minutes at room temperature, positive reactions indicated the presence of antibodies in the sample reactive with the antigen. A yellow to orange to reddish-brown color in each well indicating a positive reaction, was read in a spectrophotometer at 405 nm to quantify the reaction. Spectrophotometric readings were adjusted to correct for background reactions.
Peptides gpAHTLV-1, gpBHTLV-1, gpCHTLV-1, synthesized as described in Example 1, were run in parallel ELISA tests as described in Example 2 against 6 serum samples positive for antibodies to HTLV-1, 8 serum samples positive for antibodies to HIV-1 and 10 blood donor sera negative for HIV-1/HIV-2.

The test system of data set [3] is HTLV-1 positive serum samples. The experiment in a line: immunoreactivity screening of eight synthesized peptides A-H with HTLV-1 positive sera. In kind it is binding, human. An excerpt:
The four peptides were selected from among eight different synthesized peptides designated A-H which correspond to the HTLV-1 envelope glycoprotein. These peptides were selected using various criteria similar to the selection of useful HIV-1 or HIV-2 peptides, e.g. proximity to or containing a cysteine residue (location of cysteine in similar proteins from related organisms being relatively invariant) and proximity to glycosylation sites. Although such criteria for selection of peptides can rule out potentially nonuseful peptides and indicate potentially useful peptides, further testing was required to identify which of the eight peptides would display immunoreactivity to HTLV-1 positive serum samples. The eight peptides were synthesized in the priority A through H with the […] believed to be least antigenic based on the above-criteria.

The subject of data set [4] is antibodies to HTLV-1. Description: ELISA reactivity of gpHHTLV-1 with confirmed positive and true negative sera/CSF (Table 3). In kind it is binding, human. On the procedure:
as §1, §2
Peptide gpHHTLV-1 having the amino acid sequence: […]OH was synthesized as described in Example 1 and used in an ELISA test as described in Example 2 to measure its immunologic reactivity against confirmed Japanese HTLV-sera and sera from U.S.A. and Europe from patients with Adult T-cell Leukemia Tropical Spastic Paraparesis (TSP) and cerebrospinal fluids (CSF).

Data set [5] has as its system antibodies to HTLV-1. The experiment in a line: ELISA absorbance on sera and CSF from patients with ATL and TSP using gpHHTLV-1 (Table 5). In kind it is binding, human. The settings on record: neg CSF 8, 19, 21; diluted 1/20. As to the method: as §1
(§3) A convenient variation of known ELISA methods was used with the microtiter plates prepared as above. […] A yellow to orange to reddish-brown color in each well indicating a positive reaction, was read in a spectrophotometer at 405 nm to quantify the reaction. Spectrophotometric readings were adjusted to correct for background reactions.
Absorbance values on sera and CSF from patients with ATL and TSP were measured in ELISA using gpHHTLV-1 sera diluted 1/50, CSF sera was diluted 1/20.
A general note: An ELISA detects its analyte on a solid surface through an enzyme-linked reagent.

Data set [6] has as its system antibodies to HTLV-1. The experiment in a line: ELISA absorbance on Japanese HTLV-1 sera using gpHHTLV-1 (Table 4). Particulars: serum 1248, negative control, Western blot -; diluted 1/50. In kind it is binding, human. On the procedure:
as §1, §3
Absorbance values on Japanese HTLV-1 sera were measured in ELISA using gpHHTLV-1 as well as Du-Pont HTLV-1 ELISA and Western blot. […]

For another data set, the system named is HTLV-1 patient sera. Particulars: reactive/tested; Palker et al., 1986; cited from earlier work.
In data set [7] the test system is sera from HTLV-1 positive patients. The settings on record: reactive/tested; Copeland et al., 1986; cited from earlier work.

For “Gly-Leu-Asp-Leu-Leu-Phe-Trp-Glu-Gln-Gly-Gly-Leu-Cys-Lys-Ala-Leu-Gln-Glu-Gln-Cys-Arg-Phe-Pro-Asn-Cys-OH (GLDLLFWEQGGLCKALQEQCRFPNC-OH; cysteine pairing not given here) [gpAHTLV-1]”, the “antigenic activity of coated peptide after storage (in words)” value in data set [1] is “without any decrease in antigenic activity”. In the data set with antibodies to HTLV-1 [2], the “Mean O.D.405 of Negative Sera” value was determined as 0.124 O.D.405, the “cut off = Mean O.D.405 of Negative Sera + 6 × S.D.” value was determined as 0.490 O.D.405 and the “confirmed positive HTLV-1 serum samples reacted with peptide” value is on record as 6/6. Moreover, the “usefulness for diagnosis of HTLV-1 infection (in words)” value (“usefulness for diagnosis” for short) in data set [3] is “useful for diagnosis of HTLV-1 infection”.
Regarding “Leu-Asn-Thr-Glu-Pro-Ser-Gln-Leu-Pro-Pro-Thr-Ala-Pro-Pro-Leu-Leu-Pro-His-Ser-Asn-Leu-Asp-His-Ile-Cys-OH (LNTEPSQLPPTAPPLLPHSNLDHIC-OH) [gpHHTLV-1]”, the “Positive in ELISA” value is 1/1 in the data set on antibodies to HTLV-1 [4] (ATL CSF, positive/tested); 22/32 in the data set on antibodies to HTLV-1 [4] (Japanese HTLV-1 sera, positive/tested); 4/4 in the data set with antibodies to HTLV-1 [4] (TSP CSF, positive/tested); 4/4 with antibodies to HTLV-1 [4] (TSP sera, positive/tested); 0/4 in the data set with antibodies to HTLV-1 [4] (true negative: 4 EB virus IgM positive sera); 0/4 with antibodies to HTLV-1 [4] (true negative: 4 Leukemia patients sera). Besides, the “Positive in ELISA” value in the data set with antibodies to HTLV-1 [4] (true negative: 4 Rheumatoid factor positive sera) was 0/4; with antibodies to HTLV-1 [4] (true negative: 4 Transplant recipients sera), 0/4; in the data set on antibodies to HTLV-1 [4] (true negative: 8 CSF (aseptic meningitis)), 0/8; with antibodies to HTLV-1 [4] (true negative: 8 HIV-2 positive sera) it was 0/8; in the data set on antibodies to HTLV-1 [4] (true negative: 28 blood donor sera), 0/28; in the data set on antibodies to HTLV-1 [4] (true negative: 30 HIV-1 positive sera), 0/30. Further, the “Positive in ELISA (percent)” value with antibodies to HTLV-1 [4] (Japanese HTLV-1 sera) amounted to 69%. In the data set with antibodies to HTLV-1 [4] (Table 3 as summarised in text), the “known positive sera confirmed HTLV-1 positive (in words)” value was “all known positive sera were confirmed HTLV-1 positive”. The “gpHHTLV-1 ELISA absorbance” value with antibodies to HTLV-1 [5] is 0.033 and 0.039 and 0.056. Moreover, the “usefulness for diagnosis” value in data set [3] was “useful for diagnosis of HTLV-1 infection”. Besides, in the data set on antibodies to HTLV-1 [6], the “Absorbance values in gpHHTLV-1 ELISA” value amounted to 0.109.
For PYVEPTAPQVL [SP-71], the “HTLV-1 patient sera reacting in RIA” value in the data set with HTLV-1 patient sera is on record as 8/9.
On to “Pro-Pro-Phe-Ser-Leu-Ser-Pro-Val-Pro-Thr-Leu-NH2 (PPFSLSPVPTL-NH2) [SP-70]”, for which the “sera from HTLV-1 positive patients reacting” value in data set [7] is 4/12.
As for “X-Trp-Thr-His-Cys-Phe-Asp-Pro-Gln-Ile-Gln--Ala-Ile-Val-Ser-Ser-Pro-Cys-His-Asn-Ile-Leu-Y-Z (WTHCFDPQIQAIVSSPCHNIL; not fully specified (N-terminus, C-terminus); cysteine pairing not given here; also: end groups X, Y, Z left open in the general formula) [gpBHTLV-1]”, in the data set with antibodies to HTLV-1 [2], the “Mean O.D.405 of Negative Sera” value is 0.088 O.D.405, the “cut off = Mean O.D.405 of Negative Sera + 6 × S.D.” value is 0.298 O.D.405 and the “confirmed positive HTLV-1 serum samples reacted with peptide” value is 5/6. The “usefulness for diagnosis” value in data set [3] is recorded as “useful for diagnosis of HTLV-1 infection”.
The matching figures for “X-Tyr-Thr-Cys-Ile-Val-Cys-Ile-Asp-Arg-Ala-Ser-Leu-Ser-Thr-Trp-His-Val-Leu- Tyr-Ser-Pro-Y-Z (YTCIVCIDRASLSTWHVLYSP; not fully specified (N-terminus, C-terminus); cysteine pairing not given here; also: end groups X, Y, Z left open in the general formula) [gpCHTLV-1]”: 0.116 O.D.405, 0.368 O.D.405, 5/6 and “useful for diagnosis of HTLV-1 infection”.

(Values after patent publication US5017687A, “Peptides for the detection of HTLV-1 infection” (Virovahl, S.A., priority 1988, dated 1991).)
